The numbers were not newly measured in patent US9456994B2, “Efficient process for the preparation of lycopene containing oleoresin and lycopene crystals for human consumption” (OMNIACTIVE HEALTH TECHNOLOGIES LIMITED, priority 2011, dated 2016), which cites them from elsewhere.

SMILES strings stand for the structures.

For data set [1] the following is noted: organic solvents.

For `CC(C)=CCC/C(C)=C/C=C/C(C)=C/C=C/C(C)=C/C=C/C=C(C)/C=C/C=C(C)/C=C/C=C(\C)CCC=C(C)C` [lycopene, Lycopene], the solubility result in data set [1] is listed as “soluble in chloroform, hexane, benzene, carbon disulphide, acetone, petroleum ether”. Moreover, the lycopene lost (heated at 100 degree C in the presence of carbon dioxide) is 5%. Further, where the note is “heated at 100 degree C in the presence of oxygen”, the lycopene degraded result is on record as “More than 30%”.
